Test results published in paper PMC3927586, “Protein kinase C-delta inactivation inhibits the proliferation and survival of cancer stem cells in culture and in vivo” (BMC Cancer, 2014).

What was measured:
Hs578T cells = assay: Tumor spheroid formation, Hs578T; format: cell-based, human; conditions: for effect on formation of spheroids, Hs578T: added to culture medium, 96 hr, p≤0.001
Protocol: (§1) Tumor self-renewing and anchorage-independent spheroids were obtained by culturing breast cancer cells MCF7, Hs587T and MDA231; melanoma cells SBcl2 and FM6; human breast cancer stem cells and pancreatic cancer stem cells in stem cell-selective conditions according to the manufacturer’s instructions (StemCell Technologies, Tukwila, WA). Briefly, cancer and cancer stem cells were propagated in 6-well ultra-low adherent plates (Corning) in Complete MammoCult Medium (Human) by adding 50 mL of MammoCult Proliferation Supplements to 450 mL of MammoCult Basal Medium (StemCell Technologies). The following were added to obtain Complete MammoCult Medium: 4 ug/mL Heparin (StemCell Technologies), 0.48 μg/mL hydrocortisone (StemCell Technologies), 200 U penicillin/ml; and 200 μg streptomycin/ml (Invitrogen).
Figure 4 Effects of PKCδ inhibitors on human tumor cell spheroid formation. (A) Hs578T and MCF7 were plated under adherent or non-adherent conditions. Tumor spheroids and adherent cells were collected at 96 hr, stained for CD24 and CD44, and analyzed by flow cytometry. (B) Hs578T, MCF7, breast cancer stem cells (BCSC) and pancreatic cancer stem cells (PCSC) were plated in tumor spheroid media, in the presence of rottlerin, BJE6-106, or DMSO (Control). Tumor spheroids were enumerated at 96 hr, and normalized to the number of spheroids in the control cultures (assigned an arbitrary value of 100%). p values for comparison between vehicle and rottlerin or BJE6-106 effects were significant (p≤0.001). Photographs are of representative areas of the culture plates. (C) MCF7 cells were exposed BJE6-106 or to rottlerin at the indicated concentrations. The corresponding equivalent volume of solvent (DMSO) was used as a vehicle control (Vehicle). After 24, 48 and 72 hr of exposure, cell mass was evaluated by MTT assay. Control values were normalized to 100%. p values for comparison between vehicle and rottlerin effects on cell number at 24 hr reached significance at 5 μM, and for BJE6-106 at 0.5 μM (p ≤ 0.02), and were significant for all concentrations tested at 48 and 72 hr time points. (D) Hs578T cells were exposed to vehicle or BJE6-106 (1 μM) for 6, 12, 24, 48 or 96 hr. Viable cells were enumerated and re-plated in media without BJE6-206, and spheroid numbers were quantitated 96 hr later. p values for comparison between vehicle and BJE6-106 effects on spheroid number were significant after 6 hr of exposure (p≤0.02), and remained significant at all time points thereafter. Error bars represent SEM.

[1] = system: cells with aberrant Ras signaling; parameters: method as in PMID 24506253; conditions: cited from earlier work
DU145 = assay: Tumor spheroid growth, DU145 prostate cancer; format: cell-based, human; conditions: p < 0.001
FN5 = assay: Tumor spheroid growth, FN5 melanoma; format: cell-based, human; conditions: p < 0.001
MCF7 spheroids = assay: Tumor spheroid formation, MCF7; format: cell-based; conditions: Homo sapiens, 96 hr, read-out: inhibition of growth of MCF7 spheroids
Protocol: as §1
Figure 4 Effects of PKCδ inhibitors on human tumor cell spheroid formation. […] Tumor spheroids and adherent cells were collected at 96 hr, stained for CD24 and CD44, and analyzed by flow cytometry. […] After 24, 48 and 72 hr of exposure, cell mass was evaluated by MTT assay. […] Viable cells were enumerated and re-plated in media without BJE6-206, and spheroid numbers were quantitated 96 hr later. p values for comparison between vehicle and BJE6-106 effects on spheroid number were significant after 6 hr of exposure (p≤0.02), and remained significant at all time points thereafter. […]

PrCSC cells = assay: Cytotoxicity (LDH release) in prostate cancer stem cells; format: cell-based, human; conditions: dose-dependent, 24 and 72 hr
Protocol: LDH release was assessed by spectrophotometrically measuring the oxidation of NADH in both the cells and media. Cells were seeded in 24-well plates, and exposed to PKCδ inhibitors or vehicle. After different times of exposure, cytotoxicity was quantified by a standard measurement of LDH release with the use of the LDH assay kit (Roche Molecular Biochemicals) according to the manufacturer’s protocol. Briefly, total culture medium was cleared by centrifugation. For assay of released LDH, supernatants were collected. To assess total LDH in cells, Triton X-100 was added to vehicle (control) wells to release intracellular LDH. LDH assay reagent was added to lysates or supernatants and incubated for up to 30 min at room temperature in dark, the reaction was stopped, and the absorbance was measured at 490 nm. The percentage of LDH release was then calculated as the LDH in the supernatants as a fraction of the total LDH.
Figure 2 Effects of PKCδ inhibitors on human cancer stem cells. (A) PCSC and PrCSC cells at 80% confluence were exposed to rottlerin. DMSO served as vehicle control (Vehicle). After 24 and 72 hr of exposure, cell mass was evaluated by MTT assay. Control values were normalized to 100%. p values for comparison between treatments reached significance at 24 hr of exposure (p≤0.01) for both cell types, and remained significant at 72 hr. (B) PCSC and PrCSC cells at 50% confluence were exposed to rottlerin. Cytotoxicity was evaluated by LDH-release assay. […] Viable cells were enumerated and re-plated in media without inhibitor, and colony numbers were quantitated 15 days later. p values for comparison of treatment effects on clonogenic capacity reached significance (p=0.005) at 18 hr of exposure and remained significant for all subsequent exposure times. […] Cytotoxicity was evaluated by LDH-release assay, as in panel B. p values for comparison between treatment effects on LDH release reached significance at 24 hr of exposure to 2.5 μM KAM1 for PCSC cells and at 10 μM for PrCSC (p≤0.01), and remained significant at 72 hr for all concentrations of KAM1. […]

Compound | exposure time for near maximum inhibition of spheroid formation (washout) (Hs578T cells; BJE6-106 at 1 μM, Hs578T) | exposure time that significantly repressed spheroid formation (washout) (Hs578T cells; BJE6-106 at 1 μM, Hs578T, spheroids counted 96 hr after re-plating) | effect on formation of spheroids, Hs578T (Hs578T cells) | concentrations producing cytotoxic activity against cells with aberrant Ras signaling [1] | inhibition of tumor spheroid growth, DU145 (DU145; BJE6-106 at 0.5-1.0 μM) | inhibition of tumor spheroid growth, FN5 (FN5; BJE6-106 at 0.5-1.0 μM) | inhibition at 1 µM (MCF7 spheroids; BJE6-106 at 1 μM) | inhibition at 10 µM (DU145; Homo sapiens, DU-145, rottlerin at 10 μM) | cytotoxicity in PrCSC (LDH release) (PrCSC cells) | inhibition at 10 µM (FN5; Homo sapiens, rottlerin at 10 μM) | inhibition at 10 µM (MCF7 spheroids; rottlerin at 10 μM)
CC1(C)C=Cc2cc(CCn3c4ccccc4c4ccccc43)cc(C=O)c2O1 [BJE6-106, 6-(2-(9H-carbazol-9-yl)ethyl)-2,2-dimethyl-2H-chromene-8-carbaldehyde] | ≤ 24 h | 6 h | very efficiently inhibited | nM concentrations | > 98% | > 99.5% | > 90% |  |  |  | 
CC(=O)c1c(O)c(C)c(O)c(Cc2c(O)c3c(c(C(=O)/C=C/c4ccccc4)c2O)OC(C)(C)C=C3)c1O [rottlerin, Rottlerin, reference compound] |  |  | very efficiently inhibited |  |  |  |  | > 98% | induced cytotoxicity | > 99.5% | > 90%
